Test results from US20170189496A1, “USE OF PHOSPHORYLATION PATHWAY-RELATED FACTOR IN REGULATING FUNCTION OF REGULATORY T CELL” (Institut Pasteur of Shanghai, Chinese Academy of Sciences, priority 2012, published 2017).

How the values were obtained:
[1] = tested on: SZ4.03 lymphocyte cell line that highly expresses FOXP3; experiment: Inflammatory cytokine induction of PIM1 expression in SZ4.03 cells (immunoblot); format: cell-based; settings: IL-6 20 ng/ml or IL-4 30 ng/ml; for PIM1 expression: 0 h, 1 h, 2 h, 4 h; for FOXP3 expression levels: 0-4 h
Procedure: SZ4.03 cells were treated with IL-6 (20 ng/ml) or IL-4 (30 ng/ml), respectively. After 0 h, 1 h, 2 h, and 4 h, cells were collected and lysed by boiling directly in SDS-Loading Buffer. Samples were then analyzed by immunoblot.
SZ4.03 cells (lymphocyte cell line that highly expresses FOXP3, kept in the present laboratory; also can be routinely obtained by one skilled in the art according to methods described in Reference 7) were cultured in 1640 culture medium containing 10% FBS, 100 units/ml penicillin-streptomycin, 100 units ml non-essential amino acids, and 100 units/ml sodium pyruvate, at 37° C. under 5% CO2.
After protein samples were subjected to SDS-PAGE, transferred to nitrocellulose membrane, sealed in TBST with 5% skim milk for 1 h, primary antibody was added and incubated for 1 h, then HRP-conjugated secondary antibody was added and incubated for 1 h, and results shown by exposure with ECL substrates.
SZ4.03 cells were treated with IL-6 (20 ng/ml) or IL-4 (30 ng/ml), respectively, for 0 h, 1 h, 2 h, and 4 h. Cells were collected and lysed by boiling directly in SDS sample buffer, and then samples were analyzed by immunoblot (primary antibodies are PIM1 antibody and FOXP3 antibody) (results shown in FIG. 2).

[2] = tested on: in vitro expanded natural regulatory T cells (nTreg); experiment: PIM1 protein expression in in vitro expanded nTreg under inflammatory cytokine stimulation; format: cell-based
[3] = tested on: Jurkat cells stably expressing HA-FOXP3; experiment: FOXP3 protein degradation induced by PMA/LPS in Jurkat cells stably expressing HA-FOXP3 (immunoblot); format: cell-based; settings: PMA 25 ng/ml + LPS 1 ng/ml, 24 h; kaempferol 50 μM, PIM1 inhibitor 100 nM, PI3K inhibitor 10 μg/ml; DMSO control
Procedure: HA-FOXP3-Jurkat stable expression cells were treated with PMA (25 ng/ml) and LPS (1 ng/ml). 50 μM kaempferol, 100 nM PIM1 inhibitors (specifically of 4-[3-(4-chlorophenyl)-2,1-benzisoxazol-5-yl]-2-pyrimidinamine), and 10 μg/ml PI3K inhibitor (LY294002) were added, and DMSO as a control. Cells were collected 24 h later. The levels of FOXP3 and GAPDH were detected directly by immunoblot.
Human embryonic kidney cell line HEK293 was co-transfected with FUGW-HA-FOXP3, del 8.9 and VSV-G. Cell culture supernatants were collected 48 h and 72 h after transfection. Viruses were purified by ultracentrifugation and used to infect Jurkat E6.1 to ultimately obtain Jurkat cell lines stably expressing HA-FOXP3.
Protein samples were subjected to SDS-PAGE, and then transferred to nitrocellulose membrane, which was then sealed in TBST containing 5% nonfat dry milk or 3% bovine serum albumin for 1 h. Primary antibody was added and incubated for 1 h and then HRP-conjugated secondary antibody was added and incubated for 1 h, and results shown by exposure with ECL substrates.
Jurkat cells stably expressing HA-FOXP3 were treated with PMA (25 ng/ml) and LPS (1 ng/ml). Each sample was added 50 μM kaempferol, 100 nM PIM1 inhibitor (i.e., 4-[3-(4-chlorophenyl)-2,1-benzisoxazol-5-yl]-2-pyrimidinamine), and 10 μg/ml PI3K inhibitor (LY294002). DMSO serves as a control. Cells were collected after 24 h.

[4] = tested on: nTreg mixed with CFSE-labeled human PBMC; experiment: nTreg immunosuppressive activity: proliferation of CFSE-labeled PBMC; format: cell-based; settings: Treg:PBMC 1:2 or 1:4; Bead-CD3/CD28; 5 days; vs DMSO-treated group
Procedure: The expanded nTreg were mixed with human CFSE-labeled PBMC (2×10^5 cells/well) in U-shaped wells of 96-well plate at corresponding proportion. 5000 T cell dynabeads conjugated with CD3/CD28 antibody were added. Cell proliferation levels were detected after two groups of cells treated with DMSO and PIM1 inhibitors, respectively, were incubated for five days.
Regulatory T cells were obtained from human peripheral blood mononuclear cells (purchased from Shanghai Blood Center) by antibody labeling and magnetic bead sorting. As mentioned above, after labeling effector T cells with 1 μM CFSE (Invitrogen), regulatory T cells and effector T cells were cultured for 80 h. Flow cytometry was used to detect fluorescence intensity changes in effector T cells, their proliferation status was analyzed.
The expanded nTreg were mixed with CFSE-labeled human PBMC (2×10^5 cells/well) at the corresponding ratio (i.e., PBMC only, Treg:PBMC=1:2 or 1:4, or Treg only) in 96-well U-shaped well. 5000 Bead-CD3/CD28 were added to each well. Two groups of cells were treated, respectively, with DMSO and PIM1 inhibitors, cultured for 5 days, followed by detection of cell proliferation levels (results shown in FIG. 6).

nTreg cells = experiment: nTreg expansion, FACS detection of FOXP3 and CTLA4; format: cell-based, human; settings: 100 nM; IL-2 500 U/ml, CD3/CD28 dynabeads 3:1; two weeks; vs control group
Procedure: 500 U/ml of IL-2 was added to 2×10^5 nTreg cells. nTreg cells were expanded using CD3/CD28 T cell dynabeads and cells at 3:1 ratio. After two weeks, part of expanded nTreg cells were collected for FACS detection. Dynabeads were removed from the remaining cells. After 48 h of rest, FOXP3 and CTLA4 cells were collected again by flow cytometry. The working concentrations of Rapamycin and PIM1 inhibitors are both 100 nM.
500 U/ml of IL-2 was added to 2×10^5 nTreg cells. nTreg cells were expanded at a 3:1 ratio of CD3/CD28 T cell dynabeads and cells. After two weeks, part of the expanded nTreg cells were collected for FACS detection. Dynabeads were removed from the remaining cells and rested for 48 h. Cells were collected again for FACS detection of FOXP3 and CTLA4.

[5] = tested on: human CD4+ CD25+ CD127low natural Treg (nTreg); experiment: Flow cytometry of expanded nTreg treated with PIM1 inhibitor; format: cell-based; settings: 100 nM
Procedure: After removal of Beads, DMSO or PIM1 inhibitor (100 nM) was added and treated for 24 h, followed by APC-FOXP3 and PE-CD25 antibody staining for flow cytometry analysis.
After human CD4+ CD25+ CD127^low natural Treg (nTreg) were sorted by BD FACS Aria II flow sorter, and expanded through Bead-CD3/CD28 and IL-2 (500 U/ml). DMSO or PIM1 inhibitor (4-[3-(4-chlorophenyl)-2,1-benzisoxazol-5-yl]-2-pyrimidinamine, 100 nM) was added and treated for 24 h. and the cells were stained with APC-FOXP3 and PE-CD25 antibody for flow cytometry analysis (results shown in FIG. 5A). The expanded nTreg were rested for 24 h. DMSO or PIM1 inhibitor (100 nM) was then added and treated for 48 h, followed by staining with APC-FOXP3 and PE-CD25 antibody for flow cytometry analysis (results shown in FIG. 5B).

PIM1 [6] = molecular target: T1, PIM1 (Homo sapiens, UniProt P11309); experiment: shPIM1 knockdown in SZ4.03 cells, mRNA of FOXP3 target genes by quantitative PCR; format: cell-based; parameters: SZ4.03 cells that highly expresses FOXP3 were infected with viral vectors carrying the negative control shRNA (shCK) and PIM1 shRNA (shPIM1); endogenous in cells; host or cells: SZ4.03 lymphocyte cell line; settings: vs control shCK
T1 sequence (P11309 whole entry): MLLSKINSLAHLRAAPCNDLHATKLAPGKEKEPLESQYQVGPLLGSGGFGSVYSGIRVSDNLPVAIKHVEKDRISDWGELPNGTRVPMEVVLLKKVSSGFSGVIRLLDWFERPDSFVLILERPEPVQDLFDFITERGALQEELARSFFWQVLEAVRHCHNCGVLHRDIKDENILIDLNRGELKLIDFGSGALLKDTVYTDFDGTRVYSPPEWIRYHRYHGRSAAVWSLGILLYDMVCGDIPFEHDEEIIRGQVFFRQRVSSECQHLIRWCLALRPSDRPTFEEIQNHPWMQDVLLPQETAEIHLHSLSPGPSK
Procedure: After 4 h, total RNA was extracted and converted to cDNA. PIM1 mRNA expression levels were then analyzed by quantitative PCR.
(§1) shPIM1 primer sequences were designed as follows:
After annealing, the synthesized shRNA primer sequences were ligated into lentiviral shRNA expression vector pLKO.1 (purchased from Addgene). After mixed at a ratio of pLKO.1:dR8.9:VSVG=5:4:3, HEK 293T cells were transfected with the mixture using calcium phosphate method. Viruses were collected 48 h after transfection. After low-speed centrifugation and filtration, virus suspension was used directly to infect target cells.
SZ4.03 cells that highly expresses FOXP3 were infected with viral vectors carrying the negative control shRNA (shCK) and PIM1 shRNA (shPIM1) packaged using lentiviral packaging system, followed by puromycin (50 ng/ml) selection and DMSO or PMA/inomycin (P/I) for 4 h. Total RNA was extracted and reverse transcribed to cDNA.

PIM1 [7] = molecular target: T1, PIM1; experiment: PIM shRNA lentivirus in primary nTreg, mRNA by quantitative PCR; format: cell-based; parameters: SZ4.03 cells that highly expresses FOXP3 were infected with viral vectors carrying the negative control shRNA (shCK) and PIM1 shRNA (shPIM1); endogenous in cells; settings: primary nTreg cells; 1 week culture after lentivirus infection
Procedure: Primary nTreg cells were activated with 500 U/ml of IL-2 and CD3/CD28 T cell dynabeads and cells at 3:1 ratio for 4 h, and, respectively, infected with lentivirus encoding PIM1, PIM2, and PIM3 shRNA overnight. Continued incubation for one week, the mRNA levels of FOXP3 and its target gene CTLA4 were detected by quantitative PCR.
500 U/ml of IL-2 was added to 2×10^5 nTreg cells. Primary nTreg cells were activated at a 3:1 ratio of CD3/CD28 T cell dynabeads and cells for 4 h, followed by infection of lentiviruses encoding PIM1, PIM2, and PIM3 shRNA overnight. Cells were cultured for 1 week without removing dynabeads, and then the mRNAs level of FOXP3 and its target gene CTLA4 were detected (results shown in FIG. 12).
as §1
After annealing, the synthesized shRNA primer sequences were ligated into shRNA lentiviral expression vector pLKO.1 (purchased from Addgene). After mixed at a ratio of pLKO.1:dR8.9:VSVG=5:4:3, they were transfected into HEK 293T cells by calcium phosphate method. Viruses were collected 48 h after transfection. Virus suspensions, after low-speed centrifugation and filtration, were used directly to infect target cells.

[8] = 24 h or 48 h, vs DMSO control group

Molecule: IL-6: inflammatory cytokine, purchased from Apotech
- PIM1 expression [1]: gradually increases as treatment time increases
- FOXP3 expression levels [1]: no significant difference
- PIM1 protein expression levels [2]: rapidly up-regulate

Molecule: Nc1nccc(-c2ccc3noc(-c4ccc(Cl)cc4)c3c2)n1 [PIM1 inhibitor, 4-[3-(4-chlorophenyl)-2,1-benzisoxazol-5-yl]-2-pyrimidinamine]
- FOXP3 protein degradation [3]: can inhibit
- PBMC proliferation [4]: inhibited more
- FOXP3+ and CTLA4+ nTreg cell expansion (nTreg cells): promote
- FOXP3 expression levels [5]: positively regulate
- CD25+ FOXP3+ Treg cell levels [5, 8]: significantly increase
- CLTA4+ FOXP3+ Treg cell levels [5, 8]: significantly increase

B1: shPIM1: PIM1 shRNA (SEQ ID NO: 3 and 4) in lentiviral vector pLKO.1 (nucleic acid)
sense: CCGGGATACTCTCTTCTTCTCATAGCTCGAGCTATGAGAAGAAGAGAGTATCTTTTT
antisense: AATTAAAAAGATACTCTCTTCTTCTCATAGCTCGAGCTATGAGAAGAAGAGAGTATC
- mRNA expression levels of FOXP3-negatively regulated target gene IL-2 (PIM1 [6]): reduces
- mRNA expression levels of FOXP3-positively regulated target gene CTLA4 (PIM1 [6]): enhances
- mRNA expression levels of FOXP3-positively regulated target gene GITR (PIM1 [6]): enhances
- mRNA expression levels of non-FOXP3 target gene STUB1 (PIM1 [6]): does not affect
- mRNA expression levels of PIM1 (PIM1 [6]; DMSO or PMA/inomycin 4 h): significantly reduce
- mRNA levels of CTLA4 (PIM1 [7]): increase

B2: IL-4: inflammatory cytokine, purchased from Apotech (protein, UniProt P05112 25-153, looked up)
Interleukin-4: HKCDITLQEIIKTLNSLTEQKTLCTELTVTDIFAASKNTTEKETFCRAATVLRQFYSHHEKDTRCLGATAQQFHRHKQLIRFLKRLDRNLWGLAGLNSCPVKEANQSTLENFLERLKTIMREKYSKCSS
- PIM1 expression [1]: gradually increases as treatment time increases
- FOXP3 expression levels [1]: no significant difference
- PIM1 protein expression levels [2]: rapidly up-regulate
